Reference: patent publication US20250009743A1, “METHODS OF TREATING CANCERS USING STING AGONISTS” (Dana-Farber Cancer Institute, Inc., priority 2021, published 2025)
Entries after “also recorded” stand apart in the source; their conditions may differ.

Columns and labels:
[1] = tested on: human BMDMs; experiment: Polarization of human BMDMs cultured in CM from ovarian PDXs; format: cell-based; conditions: STAT3 inhibitor-treated PDXs; FIG. 25D
Experimental: For ex vivo culture of human macrophages, human BMDMs were generated from bone marrow mononuclear cells (BMMs) (CAT #70001) obtained from […] Technologies. Briefly, BMMs were cultured in DMEM containing 10% FBS, 55 μM 2-Mercaptoethanol (CAT #21985023, Thermo Fisher) and 50 ng/ml M-CSF for 5-7 days with media replacement every 3 days to obtain matured macrophages (BMDMs). […] Flow cytometry analysis was preformed to analyze the phenotypes of macrophages for both mouse and human BMDMs.

[2] = tested on: PE tumors; experiment: PE (exon19del/T790M EGFR, Trp53 loss) tumor growth in FVB mice; format: in vivo, mouse; conditions: mouse, in vivo
[3] = tested on: PE tumors; experiment: Flow cytometry of immune cells in PE tumors and tumor-drainage lymph nodes; format: in vivo, mouse
Experimental: To obtain single-cell suspension from tumor mass, tumors were excised, minced and dissociated in collagenase buffer (DMEM supplemented with 5% FBS, 10 mM HEPES [Gibco), 100 μg/mL penicillin-streptomycin, 20 μg/mL DNase I [StemCell] and 1× collagenase/hyaluronidase [StemCell]) at 37° C. for 45 min. Tumor-draining lymph nodes were isolated from tumor-bearing mice and were mashed through 70 μm strainer using plunger of a syringe to obtain single-cell suspension.
For FACS staining, tissue cells were first stained with LIVE/DEAD Fixable Aqua Dead Cell Stain (Thermo Fisher) for 30 min on ice, followed by blocking with anti-CD16/32 (BioLegend) for 20 minutes on ice. Afterwards, cells were incubated with antibodies targeting surface biomarkers in FACS buffer for 30 minutes on ice.

[4] = tested on: PE tumor cells; experiment: CXCL10 and CCL5 expression in PE tumor cells (RT-PCR); format: cell-based, mouse; conditions: FIG. 27C
Experimental: (§1) Cultured cells were lysed in 1 mL TRIZOL® reagent supplied with 200 μL chloroform, after which, samples were vortexed vigorously for 15s and incubated at room temperature for 2 to 3 minutes. The samples were then centrifuged at 12000 g for 15 minutes at 4° C., and collected aqueous phase only. […] Relative mRNA levels were calculated using the […]. Mouse Actb and human GAPDH were used as endogenous controls for mouse and human samples, respectively.

[5] = tested on: PC9GR4; experiment: CXCL10 and CCL5 expression in PC9GR4 cells (RT-PCR); format: cell-based, human; conditions: FIG. 27C
Experimental: as §1

[6] = tested on: EFGR/ERK signaling pathway
[7] = tested on: THP-1 macrophages; experiment: Marker expression in MDA-MB-436 tumor cell-educated THP-1 macrophages; format: cell-based, human; conditions: ADU-S100 10 μM, two days; FIG. 7G
Experimental: Cells were cultured in a humidified incubator under 5% CO2 at 37° C. MDA-MB-436, HCC1937 and THP-1 human cell lines were obtained from ATCC, tested negative for mycoplasma, and authenticated using short tandem repeat analysis (Promega GenePrint 10 System). MDA-MB-436 and HCC1937 breast cancer cells were cultured in RPMI 1640 medium (Gibco) supplemented with 10% heat-inactivated fetal bovine serum (FBS, Gemini) and 100 μg/mL penicillin-streptomycin (Gibco). THP-1 monocytes were cultured in RPMI 1640 with 10% FBS and 0.055 mM 2-mercaptoethanol (Gibco, #21985023). To differentiate THP-1 monocytes to macrophages, cells were treated with 100 nM PMA (Sigma, #P1585) for 48 h, followed by 24 h recovery with PMA-free medium.
For flow cytometry analyses of tumor and TDLN samples, single-cell suspensions were obtained as described above (Tissue Digestion). Cells were stained in cold FACS buffer (PBS containing 0.2% BSA and 5 mM EDTA) with LIVE/DEAD Fixable Aqua Dead Cell Stain (Thermo Fisher) for 30 min on ice, followed by blocking with anti-CD16/32 (BioLegend) for 20 min on ice. […] All data were analyzed using FlowJo software. […]

[8] = tested on: BMDMs generated from FVB/NJ mice; experiment: Polarization of mouse BMDMs cultured in PBM / PBM-R conditioned medium; format: cell-based; conditions: BMDMs in 50% PBM-R-CM; ADU-S100 10 μM or MSA-2 5 ug/ml, two days; FIG. 21B
Experimental: For ex vivo culture of mouse macrophages, bone marrow cells were isolated from FVB/NJ mice and cultured in DMEM containing 10% FBS, 55 μM 2-Mercaptoethanol and 20 ng/ml M-CSF. BMDMs (bone marrow derived macrophages) were harvested on day 7 and further cultured in 2.0 ml control medium (90% DMEM, 10% FBS, 55 μM 2-Mercaptoethanol and 5 ng/ml M-CSF) described above or the medium containing 50% tumor cell conditioned medium for 72 hrs before analysis. For the tumor cell conditioned medium, about 3×10^5 tumor cells were cultured in 6-well plate for 24 hrs and then treated with DMSO or olaparib. After 24 hrs incubation with DMSO or olaparib, the tumor cells were washed twice with PBS and cultured in DMEM containing 10% FBS for 48 hrs. The tumor cell conditioned medium was collected by centrifugation at 1,500 g for 5 min at 4° C. to remove all the debris and cells. For the cytokine blocking experiment, monoclonal antibodies that specific to each cytokine were added to the tumor cell conditioned medium before it was applied to culture macrophages.

Structure (SMILES): CC(=O)c1cc2c(o1)C(=O)c1ccccc1C2=O [napabucasion]
- M2-like macrophage polarization induced by CM from DF86 and DF118 [1]: partially diminished

Structure (SMILES): C=CC(=O)Nc1cc(Nc2nccc(-c3cn(C)c4ccccc34)n2)c(OC)cc1N(C)CCN(C)C [osimertinib]
- PE tumor growth [2]: significantly slowed PE tumor growth; also recorded: tumor regression; also recorded: only modest therapeutic effects
- growth of large PE tumors [2]: progressed through osimertinib treatment and presented growth rates comparable to control
- therapeutic effect under CD8^+ T cell depletion [2]: significantly mitigated
- T cells or IFNg^+/TNFa^+ T cells in large PE tumors ([3]; large tumors): did not lead to increase
- tumor immune microenvironment of large PE tumors ([3]; single-agent treatment, FIG. 30B): did not significantly affect
- CD8^+ and CD4^+ T cells in tumor ([3]; small tumors, FIG. 27B): induced the recruitment of CD8^+ and CD4^+ T cells
- IFNg-positive CD8^+ and CD4^+ T cells ([3]; small tumors, FIG. 27B): increase
- expression of CXCL10 and CCL5 [4]: significantly elevated
- expression of CXCL10 and CCL5 [5]: significantly elevated
- activation of EFGR/ERK signaling pathway (phosphorylation of EGFR and ERK) [6]: inhibited

Structure (SMILES): Nc1ncnc2c1ncn2[C@@H]1O[C@@H]2COP(=O)([S-])O[C@@H]3[C@H](O)[C@@H](COP([O-])(=S)O[C@H]2[C@H]1O)O[C@H]3n1cnc2c(N)ncnc21.[Na+].[Na+] (some centres unmarked) [ADU-S100]
- CD86 expression [7]: significantly increased
- CD163 expression [7]: suppressed
- M1/M2 ratio [8]: significantly increased
